Results reported in US10669284B2, “Fused thiazolopyrimidine derivatives as MNKS inhibitors” (LIFEARC, priority 2015, dated 2020).

Experiments:
DMPK = target: T1, DMPK (Homo sapiens, UniProt Q09013); test: Kinase selectivity screen DMPK; settings: read-out: % inhibition of DMPK
T1 sequence (Q09013 1-629): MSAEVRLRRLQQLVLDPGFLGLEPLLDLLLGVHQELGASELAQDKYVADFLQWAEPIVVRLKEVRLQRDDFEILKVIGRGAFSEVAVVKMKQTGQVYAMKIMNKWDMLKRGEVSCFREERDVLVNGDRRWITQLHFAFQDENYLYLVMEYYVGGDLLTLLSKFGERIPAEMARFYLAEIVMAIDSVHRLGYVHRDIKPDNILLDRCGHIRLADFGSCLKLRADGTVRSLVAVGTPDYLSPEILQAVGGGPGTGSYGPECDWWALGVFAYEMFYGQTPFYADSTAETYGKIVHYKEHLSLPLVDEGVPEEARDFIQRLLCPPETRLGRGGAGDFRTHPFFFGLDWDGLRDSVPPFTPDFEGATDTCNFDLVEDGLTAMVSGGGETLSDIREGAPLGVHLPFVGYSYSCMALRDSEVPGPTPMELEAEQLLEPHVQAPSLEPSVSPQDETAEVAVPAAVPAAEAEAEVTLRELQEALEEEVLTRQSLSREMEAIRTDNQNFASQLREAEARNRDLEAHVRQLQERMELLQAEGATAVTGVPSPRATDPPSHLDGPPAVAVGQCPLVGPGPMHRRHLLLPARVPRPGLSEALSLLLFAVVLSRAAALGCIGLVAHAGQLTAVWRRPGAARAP

SRC = SRC (Homo sapiens, UniProt P12931); test: Kinase selectivity screen SRC; settings: read-out: % inhibition of SRC
Sequence of SRC (P12931 whole entry): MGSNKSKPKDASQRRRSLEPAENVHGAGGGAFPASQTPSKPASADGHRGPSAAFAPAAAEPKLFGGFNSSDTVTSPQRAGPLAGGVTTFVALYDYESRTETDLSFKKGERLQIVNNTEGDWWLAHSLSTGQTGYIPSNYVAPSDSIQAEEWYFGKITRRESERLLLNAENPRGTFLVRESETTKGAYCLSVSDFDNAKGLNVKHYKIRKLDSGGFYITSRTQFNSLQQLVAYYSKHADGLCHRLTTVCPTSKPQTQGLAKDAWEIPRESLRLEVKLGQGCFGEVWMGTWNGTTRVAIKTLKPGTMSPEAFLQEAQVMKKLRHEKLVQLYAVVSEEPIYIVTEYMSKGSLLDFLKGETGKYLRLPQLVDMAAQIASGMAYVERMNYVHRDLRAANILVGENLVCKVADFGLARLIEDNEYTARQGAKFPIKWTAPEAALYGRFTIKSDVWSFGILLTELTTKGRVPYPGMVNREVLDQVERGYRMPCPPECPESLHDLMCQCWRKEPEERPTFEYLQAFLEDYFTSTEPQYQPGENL

STK17A = target: T2, STK17A (Homo sapiens, UniProt Q9UEE5); test: Kinase selectivity screen STK17A; settings: read-out: % inhibition of STK17A
T2 sequence (Q9UEE5 1-414): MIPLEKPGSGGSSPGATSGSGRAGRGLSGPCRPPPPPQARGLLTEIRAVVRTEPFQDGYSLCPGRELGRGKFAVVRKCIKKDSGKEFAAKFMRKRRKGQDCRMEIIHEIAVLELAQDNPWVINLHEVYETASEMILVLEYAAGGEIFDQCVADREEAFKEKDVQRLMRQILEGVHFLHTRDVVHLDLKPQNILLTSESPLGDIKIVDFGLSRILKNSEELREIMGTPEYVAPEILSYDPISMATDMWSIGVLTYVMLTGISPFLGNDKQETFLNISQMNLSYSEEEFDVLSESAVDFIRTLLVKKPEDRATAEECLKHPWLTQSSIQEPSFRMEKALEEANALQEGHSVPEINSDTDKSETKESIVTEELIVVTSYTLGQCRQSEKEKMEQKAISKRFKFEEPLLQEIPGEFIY

CAMK2B = CAMK2B (Homo sapiens, UniProt Q13554); test: Kinase selectivity screen CAMK2B; settings: read-out: % inhibition of CAMK2B
Sequence of CAMK2B (Q13554 whole entry, species assumed): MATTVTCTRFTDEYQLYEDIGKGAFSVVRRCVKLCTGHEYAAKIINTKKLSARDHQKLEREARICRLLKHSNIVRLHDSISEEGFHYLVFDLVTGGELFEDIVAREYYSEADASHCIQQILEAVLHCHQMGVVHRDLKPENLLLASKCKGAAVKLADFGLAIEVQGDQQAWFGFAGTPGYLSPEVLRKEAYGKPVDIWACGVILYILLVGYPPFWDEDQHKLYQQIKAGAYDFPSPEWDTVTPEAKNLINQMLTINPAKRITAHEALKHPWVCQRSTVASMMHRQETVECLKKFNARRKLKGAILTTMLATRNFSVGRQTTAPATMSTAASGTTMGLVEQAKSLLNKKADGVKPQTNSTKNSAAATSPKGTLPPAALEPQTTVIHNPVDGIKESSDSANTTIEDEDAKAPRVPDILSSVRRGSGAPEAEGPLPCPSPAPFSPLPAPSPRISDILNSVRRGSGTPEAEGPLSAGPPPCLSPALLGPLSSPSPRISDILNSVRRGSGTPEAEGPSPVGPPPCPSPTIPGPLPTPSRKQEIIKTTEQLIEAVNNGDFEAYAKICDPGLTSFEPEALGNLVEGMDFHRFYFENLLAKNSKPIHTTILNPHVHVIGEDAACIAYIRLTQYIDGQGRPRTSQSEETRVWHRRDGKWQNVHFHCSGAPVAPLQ

BTK = BTK (Homo sapiens, UniProt Q06187); test: Kinase selectivity screen BTK; settings: read-out: % inhibition of BTK
RPS6KA1 = RPS6KA1 (Homo sapiens, UniProt Q15418); test: Kinase selectivity screen RPS6KA1; settings: read-out: % inhibition of RPS6KA1
Sequence of RPS6KA1 (Q15418 whole entry, species assumed): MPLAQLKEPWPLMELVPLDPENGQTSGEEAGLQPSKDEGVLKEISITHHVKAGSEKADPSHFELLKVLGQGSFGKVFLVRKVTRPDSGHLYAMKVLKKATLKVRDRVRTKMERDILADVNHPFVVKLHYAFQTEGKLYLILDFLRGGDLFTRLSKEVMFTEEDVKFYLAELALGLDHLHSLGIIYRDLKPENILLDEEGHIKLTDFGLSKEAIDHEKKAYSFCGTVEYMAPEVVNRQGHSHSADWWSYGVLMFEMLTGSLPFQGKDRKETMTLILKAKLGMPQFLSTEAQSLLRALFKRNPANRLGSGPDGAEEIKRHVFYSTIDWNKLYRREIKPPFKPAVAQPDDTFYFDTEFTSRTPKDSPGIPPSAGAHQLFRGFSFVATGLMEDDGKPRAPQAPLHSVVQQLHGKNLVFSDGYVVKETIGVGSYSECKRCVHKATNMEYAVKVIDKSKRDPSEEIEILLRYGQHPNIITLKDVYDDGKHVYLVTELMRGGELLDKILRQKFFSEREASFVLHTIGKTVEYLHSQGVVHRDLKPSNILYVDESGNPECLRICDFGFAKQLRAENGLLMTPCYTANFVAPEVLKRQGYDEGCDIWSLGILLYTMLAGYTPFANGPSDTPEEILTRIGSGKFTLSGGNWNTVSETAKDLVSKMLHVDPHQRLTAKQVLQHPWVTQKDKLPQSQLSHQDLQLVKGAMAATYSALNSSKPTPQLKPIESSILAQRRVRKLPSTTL

RET = RET (Homo sapiens, UniProt P07949); test: Kinase selectivity screen RET; settings: read-out: % inhibition of RET
Sequence of RET (P07949 29-1114, species assumed): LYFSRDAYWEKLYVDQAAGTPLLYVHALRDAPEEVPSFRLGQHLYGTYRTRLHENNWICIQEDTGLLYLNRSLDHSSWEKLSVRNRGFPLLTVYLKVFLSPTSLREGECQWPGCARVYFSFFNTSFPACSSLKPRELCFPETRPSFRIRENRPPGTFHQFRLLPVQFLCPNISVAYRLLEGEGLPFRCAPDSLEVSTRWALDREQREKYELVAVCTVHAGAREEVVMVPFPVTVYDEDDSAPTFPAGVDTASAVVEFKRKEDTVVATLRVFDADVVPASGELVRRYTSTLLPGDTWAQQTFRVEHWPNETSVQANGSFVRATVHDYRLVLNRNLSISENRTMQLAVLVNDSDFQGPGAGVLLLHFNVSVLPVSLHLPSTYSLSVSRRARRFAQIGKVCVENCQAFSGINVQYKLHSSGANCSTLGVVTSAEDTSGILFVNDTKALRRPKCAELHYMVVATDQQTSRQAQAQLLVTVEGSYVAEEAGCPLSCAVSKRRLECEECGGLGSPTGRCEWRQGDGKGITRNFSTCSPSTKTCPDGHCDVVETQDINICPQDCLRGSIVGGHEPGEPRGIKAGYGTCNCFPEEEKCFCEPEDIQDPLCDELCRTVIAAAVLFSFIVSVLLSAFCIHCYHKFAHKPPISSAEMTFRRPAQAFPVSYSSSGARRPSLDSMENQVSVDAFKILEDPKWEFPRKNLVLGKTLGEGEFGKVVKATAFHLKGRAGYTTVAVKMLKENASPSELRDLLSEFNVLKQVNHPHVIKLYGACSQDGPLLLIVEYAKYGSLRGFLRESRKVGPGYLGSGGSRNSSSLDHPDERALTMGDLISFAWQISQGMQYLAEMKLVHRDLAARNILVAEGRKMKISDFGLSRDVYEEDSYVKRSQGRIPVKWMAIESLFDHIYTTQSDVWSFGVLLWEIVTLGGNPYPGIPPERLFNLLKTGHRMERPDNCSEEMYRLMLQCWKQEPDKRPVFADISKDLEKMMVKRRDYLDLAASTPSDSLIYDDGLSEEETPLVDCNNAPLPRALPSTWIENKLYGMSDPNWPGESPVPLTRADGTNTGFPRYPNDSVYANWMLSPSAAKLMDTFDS

MAPK8 = MAPK8 (Homo sapiens, UniProt P45983); test: Kinase selectivity screen MAPK8; settings: read-out: % inhibition of MAPK8
Sequence of MAPK8 (P45983 whole entry, species assumed): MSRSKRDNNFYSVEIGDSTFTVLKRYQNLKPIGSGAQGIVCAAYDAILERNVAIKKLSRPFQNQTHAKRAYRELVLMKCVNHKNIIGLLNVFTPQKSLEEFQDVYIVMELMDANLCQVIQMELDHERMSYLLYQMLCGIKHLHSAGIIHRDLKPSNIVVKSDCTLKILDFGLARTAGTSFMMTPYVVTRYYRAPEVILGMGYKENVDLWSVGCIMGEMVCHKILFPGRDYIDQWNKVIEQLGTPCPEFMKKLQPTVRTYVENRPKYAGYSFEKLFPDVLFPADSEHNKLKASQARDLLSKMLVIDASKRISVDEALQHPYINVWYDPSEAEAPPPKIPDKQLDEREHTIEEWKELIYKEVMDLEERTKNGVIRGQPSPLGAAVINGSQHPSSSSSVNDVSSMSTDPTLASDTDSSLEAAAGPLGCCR

PIP5K1C = PIP5K1C (Homo sapiens, UniProt O60331); test: Kinase selectivity screen PIP5K1C; settings: read-out: % inhibition of PIP5K1C
Sequence of PIP5K1C (O60331 whole entry, species assumed): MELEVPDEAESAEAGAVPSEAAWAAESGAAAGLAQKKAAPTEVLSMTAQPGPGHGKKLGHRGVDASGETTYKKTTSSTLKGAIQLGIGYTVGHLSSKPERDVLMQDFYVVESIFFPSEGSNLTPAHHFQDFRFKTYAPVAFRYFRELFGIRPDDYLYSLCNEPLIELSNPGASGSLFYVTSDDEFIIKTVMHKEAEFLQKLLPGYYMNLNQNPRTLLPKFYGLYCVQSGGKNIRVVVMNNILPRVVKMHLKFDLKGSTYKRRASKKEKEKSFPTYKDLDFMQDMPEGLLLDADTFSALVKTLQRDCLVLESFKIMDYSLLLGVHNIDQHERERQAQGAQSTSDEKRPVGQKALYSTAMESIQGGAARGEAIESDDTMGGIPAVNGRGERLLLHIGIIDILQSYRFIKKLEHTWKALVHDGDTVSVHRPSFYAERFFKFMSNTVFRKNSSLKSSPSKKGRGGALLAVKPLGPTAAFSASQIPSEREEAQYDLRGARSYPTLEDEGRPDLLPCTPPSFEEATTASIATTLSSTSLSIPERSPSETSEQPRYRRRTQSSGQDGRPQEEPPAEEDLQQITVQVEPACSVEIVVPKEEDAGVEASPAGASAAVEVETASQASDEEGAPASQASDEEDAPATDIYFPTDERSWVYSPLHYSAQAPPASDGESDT

TYRO3 = target: T3, TYRO3 (Homo sapiens, UniProt Q06418); test: Kinase selectivity screen TYRO3; settings: read-out: % inhibition of TYRO3
T3 sequence (Q06418 41-890): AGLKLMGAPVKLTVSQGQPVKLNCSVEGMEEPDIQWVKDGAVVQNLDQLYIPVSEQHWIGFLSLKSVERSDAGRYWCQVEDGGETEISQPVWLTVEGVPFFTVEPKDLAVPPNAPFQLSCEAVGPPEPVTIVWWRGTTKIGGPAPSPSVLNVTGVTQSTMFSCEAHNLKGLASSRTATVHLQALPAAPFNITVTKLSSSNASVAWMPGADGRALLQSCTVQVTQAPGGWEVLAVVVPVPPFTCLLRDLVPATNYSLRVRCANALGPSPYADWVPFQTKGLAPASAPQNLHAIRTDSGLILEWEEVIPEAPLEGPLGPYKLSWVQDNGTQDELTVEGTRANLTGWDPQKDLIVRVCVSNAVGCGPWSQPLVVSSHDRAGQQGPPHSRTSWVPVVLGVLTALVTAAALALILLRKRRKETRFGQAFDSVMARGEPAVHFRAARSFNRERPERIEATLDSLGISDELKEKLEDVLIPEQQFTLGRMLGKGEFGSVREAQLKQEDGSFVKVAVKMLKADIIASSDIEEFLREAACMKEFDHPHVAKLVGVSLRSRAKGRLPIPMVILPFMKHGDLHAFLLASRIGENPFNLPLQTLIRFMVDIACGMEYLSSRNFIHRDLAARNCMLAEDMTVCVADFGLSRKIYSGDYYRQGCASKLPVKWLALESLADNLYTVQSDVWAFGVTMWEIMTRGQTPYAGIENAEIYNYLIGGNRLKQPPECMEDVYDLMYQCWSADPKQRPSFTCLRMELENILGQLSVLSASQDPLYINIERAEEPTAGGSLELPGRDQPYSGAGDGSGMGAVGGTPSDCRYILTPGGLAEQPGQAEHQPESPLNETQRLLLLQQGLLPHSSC

CDK1/CCNB1 = CDK1/CCNB1 (Homo sapiens, UniProt P06493); test: Kinase selectivity screen CDK1/CCNB1; settings: read-out: % inhibition of CDK1/CCNB1
Sequence of CDK1/CCNB1 (P06493 whole entry, species assumed): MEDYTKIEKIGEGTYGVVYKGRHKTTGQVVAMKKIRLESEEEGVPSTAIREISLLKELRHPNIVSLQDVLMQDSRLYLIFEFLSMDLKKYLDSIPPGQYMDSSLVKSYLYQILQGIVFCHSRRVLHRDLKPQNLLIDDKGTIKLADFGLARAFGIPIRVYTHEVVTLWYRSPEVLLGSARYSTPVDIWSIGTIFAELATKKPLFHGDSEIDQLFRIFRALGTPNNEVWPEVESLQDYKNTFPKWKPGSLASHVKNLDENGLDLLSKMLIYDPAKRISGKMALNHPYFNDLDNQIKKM
Sequence of CDK1/CCNB1 (P14635 whole entry partner, species assumed): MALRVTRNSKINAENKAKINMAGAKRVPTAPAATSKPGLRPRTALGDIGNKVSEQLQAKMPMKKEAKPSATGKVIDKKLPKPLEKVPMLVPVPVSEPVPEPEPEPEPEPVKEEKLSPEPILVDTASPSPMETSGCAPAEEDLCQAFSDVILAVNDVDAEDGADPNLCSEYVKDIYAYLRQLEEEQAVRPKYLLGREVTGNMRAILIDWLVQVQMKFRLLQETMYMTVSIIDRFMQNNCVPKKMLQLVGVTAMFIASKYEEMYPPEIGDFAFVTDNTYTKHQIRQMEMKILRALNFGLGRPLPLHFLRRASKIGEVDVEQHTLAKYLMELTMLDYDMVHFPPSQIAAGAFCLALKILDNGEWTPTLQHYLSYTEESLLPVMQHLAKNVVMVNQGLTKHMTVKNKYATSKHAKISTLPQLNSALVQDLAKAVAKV

| Compound | inhibition at 1 µM (DMPK) [%] | inhibition at 1 µM (SRC) [%] | inhibition at 1 µM (STK17A) [%] | inhibition at 1 µM (CAMK2B) [%] | inhibition at 1 µM (BTK) [%] | inhibition at 1 µM (RPS6KA1) [%] | inhibition at 1 µM (RET) [%] | inhibition at 1 µM (MAPK8) [%] | inhibition at 1 µM (PIP5K1C) [%] | inhibition at 1 µM (TYRO3) [%] | inhibition at 1 µM (CDK1/CCNB1) [%] |
| --- | --- | --- | --- | --- | --- | --- | --- | --- | --- | --- | --- |
| CC(C)Oc1cc(F)ccc1Nc1ncnc2sc(C(=O)NCC3CCNCC3)nc12 [Example 10, 7-(4-fluoro-2-isopropoxy-anilino)-N-(4-piperidylmethyl)thiazolo[5,4-d]pyrimidine-2-carboxamide] | 0 | 5 | 2 | 2 | 6 | 30 | 0 | 5 | 6 | 0 | 8 |
| O=C(NCC1CCNCC1)c1nc2c(N3CCc4cc(F)ccc43)ncnc2s1 [Example 58, 7-(5-fluoroindolin-1-yl)-N-(4-piperidylmethyl)thiazolo[5,4-d]pyrimidine-2-carboxamide] | 0 | 0 | 41 | 17 | 9 | 36 | 0 | 1 | 6 | 20 | 0 |
| CN(C)CCCNC(=O)c1nc2c(N3CCc4cc(F)ccc43)ncnc2s1 [Example 64, N-[3-(dimethylamino)propyl]-7-(5-fluoroindolin-1-yl)thiazolo[5,4-d]pyrimidine-2-carboxamide] | 0 | 0 | 70 | 57 | 0 | 49 | 0 | 0 | 3 | 0 | 4 |
